Assay results published in BindingDB's records for doi:10.1007/s00044-004-0120-9 (n/a, 2004).
pKi: −log10 of the molar value.

Molecular target: T1, Alpha-1A adrenergic receptor (Homo sapiens, UniProt P35348)
T1 sequence (P35348 whole entry): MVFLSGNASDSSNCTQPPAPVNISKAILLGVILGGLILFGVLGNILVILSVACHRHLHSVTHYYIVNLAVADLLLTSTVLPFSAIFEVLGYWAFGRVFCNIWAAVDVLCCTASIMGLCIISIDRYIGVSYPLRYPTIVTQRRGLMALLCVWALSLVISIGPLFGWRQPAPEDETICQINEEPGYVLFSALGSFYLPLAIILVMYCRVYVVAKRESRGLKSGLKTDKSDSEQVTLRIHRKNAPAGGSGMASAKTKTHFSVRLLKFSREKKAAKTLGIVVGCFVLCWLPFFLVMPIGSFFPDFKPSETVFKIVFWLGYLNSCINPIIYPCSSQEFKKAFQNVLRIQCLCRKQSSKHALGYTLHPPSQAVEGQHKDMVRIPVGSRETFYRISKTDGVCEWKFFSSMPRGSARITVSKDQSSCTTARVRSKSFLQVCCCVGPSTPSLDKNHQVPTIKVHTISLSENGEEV
Test: Binding affinity to Homo sapiens (human) alpha1A adrenergic receptor

In the case of `CCC1=C(C(N)=O)C(c2ccc([N+](=O)[O-])cc2)C(C(=O)NCCCN2CCC(c3ccccc3)(c3ccccc3)CC2)=C(CC)N1` (stereo unspecified), the pKi was 8.96.
